Test results as given in patent US10178875B2, “Methods of modifying or imparting taste using organic compounds” (Givaudan, S.A., priority 2013, dated 2019).

Tested on: panel of trained tasters
Assay: Taste evaluation in water
Format: in vivo
Protocol: A one percent cut of each compound of Examples 1-13 was prepared first. The hydrochloride salts were cut directly into water, while the free base examples were cut into ethanol. Next, 100 ml of a 1 ppm, 10 ppm and 20 ppm solution were prepared. The 1 ppm standards were prepared by addition of 0.0126 ml (cut in ethanol) or 0.01 ml (cut in water) to an amber bottle followed by dilution to 100 g total sample weight using water. The 10 and 20 ppm solutions were prepared similarly, but using 0.126 ml ethanol/0.1 ml water or 0.252 ml ethanol/0.2 ml water of the 1% cuts respectively. Next, the samples were evaluated by a panel of trained tasters.

SMILES | taste (1 ppm in water) | aroma (10 ppm in water) | taste (10 ppm in water) | aroma (20 ppm in water) | taste (20 ppm in water) | aroma (1 ppm in water)
Cc1ccc(SCCc2ccccn2)cc1.Cl [Example 4, 2-(2-(P-TOLYLTHIO)ETHYL)PYRIDINE HYDROCHLORIDE] | very weak: umami, bitter, astringent | green | weak: umami, bitter, astringent, very weak | green | Weak: umami, bitter, metallic, sour, astringent | –
Oc1ccccc1SCCc1ccccn1 [Example 7, 2-((2-(PYRIDIN-2-YL)ETHYL)THIO)PHENOL] | very weak: umami, salty, weak bitter | Green pepper | weak to moderate umami, weak: bitter, metallic, | Green pepper | Weak to moderate umami, weak bitter, very | Green pepper
COc1cccc(SCCc2ccccn2)c1 [Example 8, 2-(2-((3-METHOXYPHENYL)THIO)ETHYL)PYRIDINE] | very weak metallic, weak astringent | Green pepper | weak: umami, astringent, very weak: bitter, | Green pepper | weak: umami, very weak: bitter, metallic | Green pepper, beany
Cl.c1ccc(SCCc2ccccn2)cc1 [Example 2, 2-(2-(PHENYLTHIO)ETHYL)PYRIDINE HYDROCHLORIDE] | weak umami, very weak astringent | green | moderate umami, very weak: salty, bitter, | green | moderate umami, weak: salty, bitter, astringent | green
Cc1ccccc1SCCc1ccccn1.Cl [Example 5, 2-(2-(O-TOLYLTHIO)ETHYL)PYRIDINE HYDROCHLORIDE] | weak bitter, astringent, very weak metallic | green pepper | weak umami, very weak bitter | green pepper | weak umami, very weak: bitter, astringent | green pepper
Oc1ccc(SCCc2ccccn2)cc1 [Example 6, 4-((2-(PYRIDIN-2-YL)ETHYL)THIO)PHENOL] | very weak: umami, astringent | Green, fruity | weak: umami, bitter, astringent, very weak | Green, fruity | weak: umami, bitter, astringent, very weak | green
Cc1cccc(SCCc2ccccn2)c1.Cl [Example 12, 2-(2-(M-TOLYLTHIO)ETHYL)PYRIDINE HYDROCHLORIDE] | weak: umami, astringent, very weak salty | – | moderate umami, weak: salty, astringent | – | moderate to strong umami, weak: salty, | –
c1ccc(CSCCc2ccccn2)cc1 [Example 11, 2-(2-(BENZYLTHIO)ETHYL)PYRIDINE] | weak umami, very weak astringent | Phenolic, spicy | weak umami, very weak astringent | Phenolic, spicy | moderate to strong umami, very weak bitter, | phenolic
